Consider 17 compounds from patent US20220096364A1, “Oral Care Compositions Comprising Prenylated Flavonoid” (The Procter & Gamble Company, priority 2020, published 2022).

The subject of test [1] is Porphyromonas gingivalis (ATCC strain 33277). Nature of the test: Minimum inhibitory concentration (MIC) against Porphyromonas gingivalis, 2-fold serial dilution in Minimal Medium+, visual scoring. It counts as cell-based. To be noted: P. gingivalis ATCC 33277, Minimal Medium+, overnight at 35° C., anaerobic chamber; for MIC: Porphyromonas gingivalis, ATCC33277. Here is the method:
The minimum inhibitory concentration (MIC) values against Porphyromonas gingivalis for a collection of prenylated flavonoids of varying octanol/water partition coefficients (Log P) were determined using a conventional protocol. A culture of Porphyromonas gingivalis (P. gingivalis, ATCC strain 33277) from glycerol stock was grown with a gas mix of 85% nitrogen, 10% CO2, and 5% hydrogen for 48-72 hours at 33° C. by inoculating a large loopful in MTGE (Anaerobe Systems, Morgan Hill, Calif., USA). Following incubation in MTGE, the optical density was adjusted to deliver a target count of between 2×10^7 and 2×10^8 CFU/mL using a turbidimetric target density at 600 nm using P. gingivalis Minimal Medium+. Minimal Medium+ is a growth medium containing 10 mM monosodium phosphate, 10 mM potassium chloride, 10 mM magnesium chloride, 7.7 μM hemin, 2.9 μM menadione, 30 g/L alphaglobuline from bovine blood, 250 μM calcium chloride, 100 mL/L fetal bovine serum, adjusted to pH 7.0 with NaOH. It is made by mixing alphaglobuline in water, adding salts, adjusting to pH 7.0 with NaOH, filtering using […] filter, then adding hemin, menadione, and fetal bovine serum.
The inoculum was then diluted 1/50 in Minimal Medium+ for P. gingivalis. A volume of 100 μL of inoculum was added to a row of wells (12 wells per row) of a 96-well plate for which the MIC value of a test compound would be determined. An additional 95 μL of inoculum was added to the first well in that row. For each compounded tested obtained as a pure isolate in DMSO (Phytolab GmbH, Germany), 5 μL of a stock solution (2 mg compound/mL DMSO) was also added to the first well in that row. Then, a 2-fold serial dilution was performed where 100 μL of the first well was transferred to the second well in a row and mixed with 100 μL of growth medium. This was repeated until the last well of a row was reached. In the last well, 100 μL was discarded such that all wells contained 100 μL. The plates were covered and incubated overnight at 35° C. in an anaerobic chamber (85/10/5; N2, CO2, H2) without agitation. The procedure was repeated row by row until each compound was serially diluted. Multiple plates were used if necessary. […] The MIC value was determined for each compounded tested in a row by identifying the well with the lowest concentration of test compound in the serial dilution necessary to maintain a clear well.

Test [2] relates to Streptococcus mutans (ATCC strain 25175). The test can be described thus: Minimum inhibitory concentration (MIC) against Streptococcus mutans, 2-fold serial dilution in broth, visual scoring. To be noted: S. mutans ATCC 25175, TSB, overnight at 35° C., anaerobic chamber; for MIC: Streptococcus mutans, ATCC25175. Format: cell-based. Here is the method: The minimum inhibitory concentration (MIC) values against Streptococcus mutans for a collection of prenylated flavonoids of varying octanol/water partition coefficients (Log P) were determined using a conventional protocol. A culture of Streptococcus mutans (S. mutans, ATCC strain 25175) was grown overnight (18-24 hour incubation time at 35° C.) in a Tryptone Soy Broth (TSB. BD, Becton, Dickinson and Company, Sparks, Md., USA) and adjusted to deliver a target count of between 2×10^7 and 2×10^8 CFU/mL using a turbidimetric target density at 600 nm. The inoculum was then diluted 1/1000 in TSB for S. mutans. A volume of 100 μL of inoculum was added to a row of wells (12 wells per row) of a 96-well plate for which the MIC value of a test compound would be determined. An additional 95 μL of inoculum was added to the first well in that row. For each compounded tested obtained as a pure isolate in DMSO (Phytolab GmbH, Germany), 5 μL of a stock solution (2 mg compound/mL DMSO) was also added to the first well in that row. Then, a 2-fold serial dilution was performed where 100 μL of the first well was transferred to the second well in a row and mixed with 100 μL of growth medium. This was repeated until the last well of a row was reached. In the last well, 100 μL was discarded such that all wells contained 100 μL. The plates were covered and incubated overnight at 35° C. in an anaerobic chamber (85/10/5; N2, CO2, H2) without agitation. The procedure was repeated row by row until each compound was serially diluted. Multiple plates were used if necessary. […] The MIC value was determined for each compounded tested in a row by identifying the well with the lowest concentration of test compound in the serial dilution necessary to maintain a clear well.

What is called MIC is the lowest concentration that inhibits growth of the organism.

In brackets after ≈: the same amount, converted by molar mass.

Consider `C=C(C)[C@H](CC=C(C)C)Cc1c(O)cc(O)c2c1O[C@H](c1ccc(O)cc1O)CC2=O` [Sophoraflavanone G], for which, in test [1], the “MIC (P. gingivalis)” value is listed as 12.5 ppm. Moreover, the “MIC (S. mutans)” value in test [2] came out at 1.5625 ppm.
On to `CC(C)=CCc1cc([C@@H]2CC(=O)c3ccc(O)c(CC=C(C)C)c3O2)cc(CC=C(C)C)c1O` [(−)-Sophoranone], for which the “MIC (P. gingivalis)” value in test [1] is on record as 50 ppm. For the same compound, the “MIC (S. mutans)” value in test [2] is 125 ppm.
Consider `COc1cc(O)c(CC=C(C)C)c(O)c1C(=O)/C=C/c1ccc(O)cc1` [Xanthohumol], for which the minimal inhibitory concentration (MIC) in test [1] was 12.5 µg/mL (≈ 35.3 µM); in test [2], 3.12 µg/mL (≈ 8.82 µM).
In the case of `CC(C)=CCc1cc(-c2coc3cc(O)ccc3c2=O)ccc1O` [Neobavaisoflavone], the minimum inhibitory concentration (MIC) in test [1] was found to be 31.2 µg/mL (≈ 96.9 µM); in test [2] it was 12.5 µg/mL (≈ 38.8 µM).
On to `CC(C)=CCC/C(C)=C/Cc1cc(-c2coc3cc(O)ccc3c2=O)ccc1O` [Corylifol A], for which the “MIC (P. gingivalis)” value in test [1] is on record as 15.625 ppm. In addition, in test [2], the “MIC (S. mutans)” value was more than 500 ppm.
With `COc1ccc(-c2oc3c(CC=C(C)C)c(O[C@@H]4O[C@H](CO)[C@@H](O)[C@H](O)[C@H]4O)cc(O)c3c(=O)c2O[C@@H]2O[C@@H](C)[C@H](O)[C@@H](O)[C@H]2O)cc1` [Icariin], the results for the minimal inhibitory concentration (MIC) in test [1] and in test [2] were 50 µg/mL (≈ 73.9 µM) and more than 500 µg/mL, respectively.
As to `C=C(C)[C@H](CC=C(C)C)Cc1c(O)cc(OC)c2c1O[C@H](c1ccc(O)cc1O)CC2=O` [Kurarinone], the results for the minimal inhibitory concentration (MIC) in test [1] and in test [2] were 15.6 µg/mL (≈ 35.6 µM) and 3.91 µg/mL (≈ 8.91 µM), respectively.
Turning to `CC(C)=CCc1c(O)cc(O)c2c1O[C@H](c1ccc(O)cc1)CC2=O` [8-Prenylnaringenin], the minimal inhibitory concentration (MIC) in test [1] was 50 µg/mL (≈ 147 µM); in test [2], 12.5 µg/mL (≈ 36.7 µM).
Take `COc1cc(O)c(C(=O)[C@@H]2[C@H](CC=C(C)C)C(C)=CC[C@H]2c2ccccc2)c(O)c1` [Panduratin A]: the “MIC (P. gingivalis)” value in test [1] is 0.488 ppm. Moreover, the “MIC (S. mutans)” value in test [2] came to 0.7813 ppm.
In the case of `CC(C)=CCc1c(-c2ccc(O)cc2O)oc2c([C@H]3C=C(C)C[C@@H](c4ccc(O)cc4O)[C@@H]3C(=O)c3ccc(O)cc3O)c(O)cc(O)c2c1=O` [Kuwanon G], the “MIC (P. gingivalis)” value in test [1] was 125 ppm. Besides, in test [2], the “MIC (S. mutans)” value was 3.125 ppm.
For the compound `COc1cc(O)c(CC=C(C)C)c2c1C(=O)CC(c1ccc(O)cc1)O2` (stereo not shown) [Isoxanthohumol], the MIC came out at 25 µg/mL (≈ 70.5 µM) in test [1] and 50 µg/mL (≈ 141 µM) in test [2].
Consider `CC(C)=CCc1c(-c2ccc(O)cc2O)oc2c(CC=C(C)C)c(O)cc(O)c2c1=O` [Kuwanon C], for which the “MIC (P. gingivalis)” value in test [1] is 7.8125 ppm. Further, the “MIC (S. mutans)” value in test [2] is listed as 0.9766 ppm.
Take `CC(C)=CCc1cc(C(=O)/C=C/c2ccc(O)cc2)c(O)cc1O` [Bavachalcone]: the “MIC (P. gingivalis)” value in test [1] was determined as 12.5 ppm. In addition, in test [2], the “MIC (S. mutans)” value was found to be 3.125 ppm.
As to `CC(C)=CCc1cc2c(cc1O)O[C@H](c1ccc(O)cc1)CC2=O` [Bavachin], the MIC in test [1] was 31.2 µg/mL (≈ 96.3 µM); in test [2] it was more than 500 µg/mL.
`COc1ccc(-c2oc3c(CC=C(C)C)c(O)cc(O)c3c(=O)c2O)cc1` [Icaritin]: the MIC in test [1] and in test [2] was more than 500 µg/mL each time.
Consider `CC(C)=CCc1c(O)ccc(C(=O)/C=C/c2ccc(O)cc2)c1O` [Isobavachalcone], for which the minimum inhibitory concentration (MIC) in test [1] was determined as 12.5 µg/mL (≈ 38.5 µM); in test [2], 1.56 µg/mL (≈ 4.82 µM).
For the compound `CC(C)=CCc1c(O)cc2c(c1O)C(=O)C[C@@H](c1ccc(O)cc1)O2` [6-Prenylnaringenin], the results for the minimum inhibitory concentration (MIC) in test [1] and in test [2] were 25 µg/mL (≈ 73.4 µM) and 15.6 µg/mL (≈ 45.9 µM), respectively.
